Laboratory results taken from ChEMBL document CHEMBL3137667, “[Drug-induced liver injury; fourteenth updated edition of the bibliographic database of liver injuries and related drugs]” (Gastroenterol Clin Biol, 2004).

Tests used:
[1] = human
[2] = human; remark: listed apart in the source
[3] = Highest frequency of acute liver toxicity observed during clinical trials, expressed as a percentage. [column '% AIGUE' in source]; conditions: human
[4] = human, serum, 4383 h
[5] = human, serum
[6] = human, serum; remark: listed apart in the source
[7] = human; remark: listed apart in the source
[8] = Highest frequency of moderate liver toxicity observed during clinical trials, expressed as a percentage. [column '% BIOL' in source]; conditions: human
[9] = human; remark: listed apart in the source
[10] = human; remark: listed apart in the source
[11] = human; remark: listed apart in the source
[12] = human; remark: listed apart in the source
[13] = human; remark: listed apart in the source
[14] = human; remark: listed apart in the source
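Wherever Hepatotoxicity (association with vascular disease) is given: count of indexed literature references reporting vascular liver injury in humans, e.g. peliosis hepatitis, hepatic veno-occlusive disease or Budd-Chiari syndrome.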
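Wherever Hepatotoxicity (benign tumour) is given: value is a count of indexed literature references citing a benign tumour confirmed by histopathology.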
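Wherever Hepatotoxicity (choleostasis) is given: human cholestatic liver injury, shown by histopathology or by peak ALT or AST elevation over alkaline phosphatase ratio below 2, value counts indexed literature reports.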
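Wherever Hepatotoxicity (chronic liver disease) is given: chronic liver injury confirmed by histopathology or persistently raised serum aminotransferase activity beyond 6 months, value given as the count of indexed literature references.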
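Wherever Hepatotoxicity (cirrhosis) is given: value is a count of indexed literature references reporting cirrhosis confirmed by histopathology.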
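Wherever Hepatotoxicity (cytolytic) is given: human cytolytic liver injury, shown by histopathology or by a ratio above 5 of peak ALT or AST elevation to alkaline phosphatase elevation, value counts indexed references.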
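Wherever Hepatotoxicity (granulomatous hepatitis) is given: value is a count of indexed literature references reporting granulomatous liver disease confirmed by histopathology.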
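Wherever Hepatotoxicity (malignant tumour) is given: malignant tumour confirmed by histopathology, value gives the count of indexed literature references reporting it.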
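Wherever Hepatotoxicity (severe hepatitis) is given: human clinical data: severe hepatitis, meaning potentially life-threatening liver failure or clinically observed cases, the value counts how many indexed literature references report it.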
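Wherever Hepatotoxicity (steatosis) is given: steatosis confirmed by histopathology, value is the count of indexed references.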

| Compound | Hepatotoxicity (benign tumour) [1] | Hepatotoxicity (steatosis) [2] | Hepatotoxicity (acute) [3] [%] | Hepatotoxicity (chronic liver disease) [4] | Hepatotoxicity (moderate) [5] | Hepatotoxicity (acute) [6] | Hepatotoxicity (granulomatous hepatitis) [7] | Hepatotoxicity (moderate) [8] [%] | Hepatotoxicity (malignant tumour) [9] | Hepatotoxicity (association with vascular disease) [10] | Hepatotoxicity (cirrhosis) [11] | Hepatotoxicity (severe hepatitis) [12] | Hepatotoxicity (cytolytic) [13] | Hepatotoxicity (choleostasis) [14] |
| --- | --- | --- | --- | --- | --- | --- | --- | --- | --- | --- | --- | --- | --- | --- |
| OCc1cc(C(O)CNCCCCCCOCCCCc2ccccc2)ccc1O (stereo not drawn) [SALMETEROL] | 0 | 0 | 0 | 0 | 1 | 0 | 0 | 1.8 | 0 | 0 | 0 | 0 | 0 | 0 |
| CC(C)CCOc1ccc(NC(=S)Nc2ccc(OCCC(C)C)cc2)cc1 [TIOCARLIDE] | 0 | 0 | 0.4 | 0 | 1 | 2 | 0 | 4.5 | 0 | 0 | 0 | 0 | 2 | 0 |
| NCCCNc1ccc2c3c(nn2CCNCCO)-c2c(O)ccc(O)c2C(=O)c13 [PIROXANTRONE] | 0 | 0 | 0 | 0 | 4 | 0 | 0 | 9.1 | 0 | 0 | 0 | 0 | 0 | 0 |
| Cc1c(C)c2ccc(OCCCN3CCN(Cc4ccc(Cl)cc4)CC3)cc2oc1=O | 0 | 0 | 0 | 0 | 1 | 0 | 0 | 2 | 0 | 0 | 0 | 0 | 0 | 0 |
| CCCc1c2oc(C(=O)O)cc(=O)c2cc2c(=O)cc(C(=O)O)n(CC)c12 [NEDOCROMIL] | 0 | 0 | 0 | 0 | 2 | 0 | 0 | 3.3 | 0 | 0 | 0 | 0 | 0 | 0 |
| CO/N=C(\C(=O)N[C@@H]1C(=O)N2C(C(=O)O)=CCS[C@H]12)c1csc(N)n1 [CEFTIZOXIME] | 0 | 0 | 1.4 | 0 | 32 | 4 | 0 | 35 | 0 | 0 | 0 | 0 | 1 | 1 |
| C[C@H]1C[C@H]2[C@@H]3CCC4=CC(=O)C=C[C@]4(C)[C@@]3(F)[C@@H](O)C[C@]2(C)[C@@]1(O)C(=O)CO [BETAMETHASONE] | 0 | 1 | 0 | 0 | 0 | 0 | 0 | 0 | 0 | 0 | 0 | 0 | 0 | 0 |
| C[C@]1(O)CC[C@H]2[C@@H]3CCC4=CC(=O)CC[C@@H]4[C@H]3CC[C@@]21C [NORMETHANDRONE] | 0 | 0 | 0 | 0 | 0 | 2 | 0 | 0 | 0 | 0 | 0 | 0 | 0 | 1 |
| O=C(COCC(=O)Nc1c(I)cc(I)c(C(=O)O)c1I)Nc1c(I)cc(I)c(C(=O)O)c1I [IOGLYCAMIC ACID] | 0 | 0 | 0 | 0 | 1 | 0 | 0 | 0 | 0 | 0 | 0 | 0 | 0 | 0 |
| Cc1cc(=O)n(-c2ccccc2)n1C [ANTIPYRINE] | 0 | 0 | 0 | 0 | 0 | 1 | 0 | 0 | 0 | 0 | 0 | 0 | 0 | 1 |
| O=C(Cn1ccnc1[N+](=O)[O-])NCc1ccccc1 [BENZNIDAZOLE] | 0 | 0 | 0 | 0 | 0 | 1 | 0 | 0 | 0 | 0 | 0 | 0 | 0 | 0 |
| Cc1ncc(CNC(=O)N(CCCl)N=O)c(N)n1 [NIMUSTINE] | 0 | 0 | 0 | 0 | 2 | 0 | 0 | 3.6 | 0 | 0 | 0 | 0 | 0 | 0 |
